Measurements reported in patent US12421253B2 (Mirati Therapeutics, Inc., priority 2020, dated 2025).

What was measured:
KRas^G12D = target: T1, KRas^G12D (Homo sapiens, UniProt P01116, G12D); assay: KRas binding assay (TR-FRET displacement of Cy5 labelled tracer)
T1 construct: […]; biotin (biotinylated); purchased Accelegan Inc
Method: (§6) The ability of a compound to bind to KRas was measured using a TR-FRET displacement assay. […] After a 60-minute incubation at room temperature, the reaction was measured using a BMG LABTECH CLARIO star Plus via TR-FRET. […] The POC values were fit to a 4-parameter IC50 equation and the IC50 value reported.

KRas^G12V = target: T2, KRas^G12V (Homo sapiens, UniProt P01116, G12V); assay: as above
T2 construct: […]; biotin (biotinylated); purchased Accelegan Inc
Method: as §6

KRas^G12R = target: T3, KRas^G12R (Homo sapiens, UniProt P01116, G12R); assay: as above
T3 construct: […]; biotin (biotinylated); purchased Accelegan Inc
T3 sequence (P01116 1-169 isoform P01116-2 G12R): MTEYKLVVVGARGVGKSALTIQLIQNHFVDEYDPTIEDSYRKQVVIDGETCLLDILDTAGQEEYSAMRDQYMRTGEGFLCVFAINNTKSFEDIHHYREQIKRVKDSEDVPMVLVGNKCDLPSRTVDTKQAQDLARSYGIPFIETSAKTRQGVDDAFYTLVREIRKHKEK
Method: as §6

[1] = system: NCI-H460 (Q61H) cells, phospho-ERK; assay: Inhibition of KRas-mediated phosphorylation of ERK (phospho-ERK/GAPDH antibody detection, LI-COR); format: cell-based; conditions: Homo sapiens, 3 hours
Method: (§1) AsPC-1 (G12D, ATCC CRL-1682), A549 (G12S, ATCC CCL-185), HCT116 (G13D, ATCC CCL-247) cells were grown in DMEM medium supplemented with 10% fetal bovine serum and Penicillin/Streptomycin. NCI-H358 (G12C, ATCC CRL-5807), NCI-H460 (Q61H, ATCC HTB-117), NCI-H727 (G12V, ATCC CRL-5815), MKN1 (WTdep, JCRB JCRB0252), PSN-1 (G12R, ATCC CRM-CRL-3211) cells were grown in RPMI medium supplemented with 10% fetal bovine serum, 10 mM HEPES, 10 mM Sodium Pyruvate, and Penicillin/Streptomycin. Cells were plated in black well clear bottom tissue culture treated 96 well plates (Corning, 3904) at a density of 20,000 cells/well and allowed to attach for 12-14 hours. Diluted compounds were then added in a final concentration of 0.5% DMSO. After 3 hours, 50 μL of 4.0% formaldehyde was added and the plates incubated at room temperature for 20 minutes. The plates were then dumped and permeabilized with 150 μL of ice cold 100% methanol for 10 minutes. Non-specific antibody binding to the plates was blocked using 100 μL Odyssey blocking buffer (LI-COR Biosciences, 927-60010) for 1 hour at room temperature.
(§2) The amount of phospho-ERK was determined using an antibody specific for the phosphorylated form of ERK and compared to the amount of GAPDH. Primary antibodies used for the detection were added as follows: Phospho-ERK (Cell Signaling CS-9101) diluted 1:500 and GAPDH (Millipore MAB374) diluted 1:5000 in Odyssey blocking buffer+0.05% Tween 20. The plates were incubated overnight at 4 C. The plates were washed 3× with 150 uL PBS+0.1% Tween 20.
(§3) Secondary antibodies used to visualize primary antibodies were added as follows: Goat Anti-Rabbit-800 (LI-COR, 926-32211) and Goat Anti-Mouse-680 (LI-COR, 926-68070) diluted 1:800 both in Odyssey blocking buffer+0.05% Tween 20 and were incubated for 1 hour at room temperature. The plates were washed 3× with 150 uL PBS+[…]. Plates were imaged dry on a Li—COR Odyssey CLX plate reader.
(§4) The phospho-ERK (Thr202/Tyr204) signal was normalized to the GAPDH signal for each well and percent of DMSO control values were calculated. IC50 values were generated using a 4-parameter fit of the dose response curve.

[2] = system: AsPC-1 (G12D) cells, phospho-ERK; assay: as above; format: cell-based; conditions: Homo sapiens, ASPC1, 3 hours
Method: as §1, §2, §3, §4

[3] = system: NCI-H727 (G12V) cells, phospho-ERK; assay: as above; format: cell-based; conditions: Homo sapiens, 3 hours
Method: as §1, §2, §3, §4

MKN1 cells, pERK = assay: Inhibition of KRas phosphorylation of ERK (Cisbio HTRF Advanced pERK assay); format: cell-based; conditions: Homo sapiens, MKN-1, 3 h, read-out: Inhibition (HTRF IC50 nM) of KRas-mediated Phosphorylation of ERK, MKN1
Method in brief: (§5)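 Overnight-plated cells (RPMI, 10% FBS); compound 3 h, 37 °C, 10 uM top, 3-fold x10, 0.8% DMSO; min ctrl trametinib 0.2 uM; lysis 40 min 4 °C; pERK by HTRF, 2 h RT.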

PSN1 cells, pERK = assay: as above; format: cell-based; conditions: Homo sapiens, PSN1, 3 h, read-out: Inhibition (HTRF IC50 nM) of KRas-mediated Phosphorylation of ERK, PSN1
Method in brief: as §5

KRas^G12S = target: T4, KRas^G12S (Homo sapiens, UniProt P01116, G12S); assay: KRas binding assay (TR-FRET displacement of Cy5 labelled tracer)
T4 construct: […]; biotin (biotinylated); purchased Accelegan Inc
T4 sequence (P01116 1-169 isoform P01116-2 G12S): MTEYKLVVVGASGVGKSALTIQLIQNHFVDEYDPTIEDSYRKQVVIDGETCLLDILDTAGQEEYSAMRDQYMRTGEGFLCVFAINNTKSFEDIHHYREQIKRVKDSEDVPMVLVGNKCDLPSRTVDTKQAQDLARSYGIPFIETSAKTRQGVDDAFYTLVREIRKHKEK
Method: as §6

KRas^Q61H = KRas^Q61H (Homo sapiens, UniProt P01116, Q61H); assay: biochemical
KRas^Q61H, sequence (P01116 1-169 isoform P01116-2 Q61H): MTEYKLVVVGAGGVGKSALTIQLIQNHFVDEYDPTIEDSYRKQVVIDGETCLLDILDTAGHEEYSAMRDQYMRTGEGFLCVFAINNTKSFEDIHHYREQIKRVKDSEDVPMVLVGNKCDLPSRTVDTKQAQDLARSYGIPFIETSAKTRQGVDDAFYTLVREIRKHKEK
Method: as §6

KRas^G12C = KRas^G12C (Homo sapiens, UniProt P01116, G12C); assay: biochemical
KRas^G12C, sequence (P01116 1-169 isoform P01116-2 G12C): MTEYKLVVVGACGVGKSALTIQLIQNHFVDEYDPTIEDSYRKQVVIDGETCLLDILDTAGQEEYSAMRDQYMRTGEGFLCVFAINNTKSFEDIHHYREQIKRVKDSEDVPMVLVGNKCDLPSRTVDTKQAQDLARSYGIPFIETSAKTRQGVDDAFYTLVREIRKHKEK
Method: as §6

KRas^G12A = target: T5, KRas^G12A (Homo sapiens, UniProt P01116, G12A); assay: KRas binding assay (TR-FRET displacement of Cy5 labelled tracer)
T5 construct: […]; biotin (biotinylated); purchased Accelegan Inc
T5 sequence (P01116 1-169 isoform P01116-2 G12A): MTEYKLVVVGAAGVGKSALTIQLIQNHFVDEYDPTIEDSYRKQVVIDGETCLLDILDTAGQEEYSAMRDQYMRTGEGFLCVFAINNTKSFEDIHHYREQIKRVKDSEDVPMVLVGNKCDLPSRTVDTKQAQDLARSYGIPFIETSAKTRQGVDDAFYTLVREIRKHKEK
Method: as §6

KRas^WT = target: T6, KRas^WT (Homo sapiens, UniProt P01116); assay: as above
T6 construct: […]; biotin (biotinylated); purchased Accelegan Inc
T6 sequence (P01116 1-169 isoform P01116-2): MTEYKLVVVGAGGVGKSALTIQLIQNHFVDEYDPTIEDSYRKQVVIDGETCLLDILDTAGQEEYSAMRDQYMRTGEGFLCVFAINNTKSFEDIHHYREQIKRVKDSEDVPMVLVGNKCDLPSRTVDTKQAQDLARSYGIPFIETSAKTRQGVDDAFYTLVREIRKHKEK
Method: as §6

KRas^G13D = KRas^G13D (Homo sapiens, UniProt P01116, G13D); assay: biochemical
KRas^G13D, sequence (P01116 1-169 isoform P01116-2 G13D): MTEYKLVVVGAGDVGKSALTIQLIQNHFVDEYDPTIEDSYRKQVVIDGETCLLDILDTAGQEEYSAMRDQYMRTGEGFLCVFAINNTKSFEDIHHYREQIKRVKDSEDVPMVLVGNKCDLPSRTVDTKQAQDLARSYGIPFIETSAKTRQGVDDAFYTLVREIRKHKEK
Method: as §6

T1 sequence (P01116 1-169 isoform P01116-2 G12D): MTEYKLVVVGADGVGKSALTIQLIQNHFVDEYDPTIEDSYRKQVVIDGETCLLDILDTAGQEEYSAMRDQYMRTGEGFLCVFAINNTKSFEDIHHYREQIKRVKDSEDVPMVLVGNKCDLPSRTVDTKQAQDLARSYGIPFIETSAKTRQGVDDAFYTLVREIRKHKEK
T2 sequence (P01116 1-169 isoform P01116-2 G12V): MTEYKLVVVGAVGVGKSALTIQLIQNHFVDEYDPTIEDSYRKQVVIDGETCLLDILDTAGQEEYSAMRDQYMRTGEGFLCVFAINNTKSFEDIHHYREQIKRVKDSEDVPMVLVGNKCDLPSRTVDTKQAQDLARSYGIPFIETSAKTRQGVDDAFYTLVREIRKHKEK

| Compound | IC50 (KRas^G12D) | IC50 (KRas^G12V) | IC50 (KRas^G12R) | IC50 [1] | IC50 [2] | IC50 [3] | IC50 (MKN1 cells, pERK) | IC50 (PSN1 cells, pERK) | IC50 (KRas^G12S) | IC50 (KRas^Q61H) | IC50 (KRas^G12C) | IC50 (KRas^G12A) | IC50 (KRas^WT) | IC50 (KRas^G13D) |
| --- | --- | --- | --- | --- | --- | --- | --- | --- | --- | --- | --- | --- | --- | --- |
| CCc1c(F)ccc2cc(O)cc(N3CCc4c(nc(OC[C@@]56CCCN5C[C@H](F)C6)nc4N4CCCCC(S(C)(=O)=O)C4)C3)c12 (stereo partly drawn) [Example 28, 5-ethyl-6-fluoro-4-(2-(((2R,7aS)-2-fluorohexahydro-1H-pyrrolizin-7a-yl)methoxy)-4-(3-(methylsulfonyl)azepan-1-yl)-5,6-dihydropyrido[3,4-d]pyrimidin-7(8H)-yl)naphthalen-2-ol] | ≤ 2 nM | ≤ 2 nM | ≤ 2 nM | 494 nM | 1010 nM | 987 nM | 36 nM | ≥ 10000 nM |  |  |  |  |  |  |
| CCc1c(F)ccc2cc(O)cc(N3CCc4c(nc(OC[C@@]56CCCN5C[C@H](F)C6)nc4NCc4ccc5nncn5c4)C3)c12 [Example 31, 4-(4-(([1,2,4]triazolo[4,3-a]pyridin-6-ylmethyl)amino)-2-(((2R,7aS)-2-fluorohexahydro-1H-pyrrolizin-7a-yl)methoxy)-5,6-dihydropyrido[3,4-d]pyrimidin-7(8H)-yl)-5-ethyl-6-fluoronaphthalen-2-ol] | 31 nM | ≤ 2 nM | ≤ 2 nM | > 10000 nM | 3540 nM | 3320 nM | 637 nM | ≥ 10000 nM |  |  |  |  |  |  |
| CCc1c(F)ccc2cc(O)cc(N3CCc4c(nc(OC[C@@]56CCCN5C[C@H](F)C6)nc4N4CCC(O)C(CO)CC4)C3)c12 (stereo partly drawn) [Example 33, 1-(7-(8-ethyl-7-fluoro-3-hydroxynaphthalen-1-yl)-2-(((2R,7aS)-2-fluorohexahydro-1H-pyrrolizin-7a-yl)methoxy)-5,6,7,8-tetrahydropyrido[3,4-d]pyrimidin-4-yl)-5-(hydroxymethyl)azepan-4-ol] | 5 nM | ≤ 2 nM | ≤ 2 nM | 398 nM | 1360 nM | 1860 nM | 11 nM | ≥ 10000 nM |  |  |  |  |  |  |
| CCc1c(F)ccc2cc(O)cc(N3CCc4c(nc(OC[C@@]56CCCN5C[C@H](F)C6)nc4N4CCCCCC(S(C)(=O)=O)C4)C3)c12 (stereo partly drawn) [Example 36, 5-ethyl-6-fluoro-4-(2-(((2R,7aS)-2-fluorotetrahydro-1H-pyrrolizin-7a(5H)-yl)methoxy)-4-(3-(methylsulfonyl)azocan-1-yl)-5,8-dihydropyrido[3,4-d]pyrimidin-7(6H)-yl)naphthalen-2-ol] | 5 nM | ≤ 2 nM | 5 nM | 731 nM | 1760 nM | 1730 nM | 37 nM | ≥ 10000 nM |  |  |  |  |  |  |
| CCc1c(F)ccc2cc(O)cc(N3CCc4c(nc(OC[C@@]56CCCN5C[C@H](F)C6)nc4N4CCC(c5[nH]ncc5N)C4)C3)c12 (stereo partly drawn) [Example 26, 4-(4-(3-(4-amino-1H-pyrazol-5-yl)pyrrolidin-1-yl)-2-(((2R,7aS)-2-fluorohexahydro-1H-pyrrolizin-7a-yl)methoxy)-5,6-dihydropyrido[3,4-d]pyrimidin-7(8H)-yl)-5-ethyl-6-fluoronaphthalen-2-ol] | 110 nM | 4 nM | 5 nM | 3260 nM | 10000 nM | 3120 nM |  |  | 10 nM | 22 nM | 7 nM | 7 nM | 24 nM | 34 nM |
